From patent US20160039825A1 (BIOGEN MA INC., priority 2013, published 2016)

target: T1, Human ATX protein (Homo sapiens, UniProt Q13822); test: Autotaxin (ATX) assay, FRET with FS-3 substrate; type: biochemical; conditions: upper bound bins (no greater than 100, 250 or 500 nM); FS-3 2 μM, ATX 1.0 μg/mL
T1 construct: made in house
Procedure, shortened: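 In-house human ATX (1.0 μg/mL final) was preincubated with compound for 30 min at room temperature in Tris buffer pH 7.4 with NaCl, KCl, CaCl2, MgCl2 and 1 mg/mL fatty acid-free BSA. FS-3 (2 μM final) was added and the plate shaken 2 h at room temperature in the dark. Fluorescence was read at ex 485/em 538 nm.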

SMILES	IC50
CC(C)(C)OC(=O)N1CC=C(c2cc3n(n2)CCN(C(=O)OCc2cc(C(F)(F)F)cc(C(F)(F)F)c2)C3)CC1 [Example 497]	≤ 100 nM
CC(C)(C)OC(=O)N1CCC=C(c2cc3n(n2)CCN(C(=O)OCc2cc(C(F)(F)F)cc(C(F)(F)F)c2)C3)C1 [Example 498]	≤ 100 nM
O=C(OCc1cc(C(F)(F)F)cc(C(F)(F)F)c1)N1CCn2nc(-c3ccncc3)cc2C1 [Example 499]	≤ 100 nM
O=C(OCc1cc(C(F)(F)F)cc(C(F)(F)F)c1)N1CCn2nc(-c3cn[nH]c3)cc2C1 [Example 500]	≤ 100 nM
O=C(NCC1CC1)c1cc2n(n1)CCCN(C(=O)OCc1cc(C(F)(F)F)cc(C(F)(F)F)c1)C2 [Example 502]	≤ 100 nM
O=C(NC1CC1)c1cc2n(n1)CCCN(C(=O)OCc1cc(C(F)(F)F)cc(C(F)(F)F)c1)C2 [Example 503]	≤ 100 nM
O=C(NC1CC(O)C1)c1cc2n(n1)CCCN(C(=O)OCc1cc(C(F)(F)F)cc(C(F)(F)F)c1)C2 (stereo not drawn) [Example 504]	≤ 100 nM
O=C(NC1COC1)c1cc2n(n1)CCCN(C(=O)OCc1cc(C(F)(F)F)cc(C(F)(F)F)c1)C2 [Example 505]	≤ 100 nM
O=C(NC1CCOCC1)c1cc2n(n1)CCCN(C(=O)OCc1cc(C(F)(F)F)cc(C(F)(F)F)c1)C2 [Example 506]	≤ 100 nM
O=C(O)c1nn2c(c1F)CN(C(=O)OCc1cc(C(F)(F)F)cc(C(F)(F)F)c1)CCC2 [Example 507, 5-(((3,5-bis(Trifluoromethyl)benzyl)oxy)carbonyl)-3-fluoro-5,6,7,8-tetrahydro-4H-pyrazolo[1,5-a][1,4]diazepine-2-carboxylic acid]	≤ 100 nM
CC(NC1CC1)c1cc2n(n1)CCCN(C(=O)OCc1cc(C(F)(F)F)cc(C(F)(F)F)c1)C2 (stereo not drawn) [Example 508]	≤ 100 nM
CC(NC1COC1)c1cc2n(n1)CCCN(C(=O)OCc1cc(C(F)(F)F)cc(C(F)(F)F)c1)C2 (stereo not drawn) [Example 509]	≤ 250 nM
O=C(OCc1cc(C(F)(F)F)cc(C(F)(F)F)c1)N1CCCn2nc(CN3CCC(F)CC3)cc2C1 [Example 510]	≤ 100 nM
O=C(OCc1cc(C(F)(F)F)cc(C(F)(F)F)c1)N1CCCn2nc(CNC3COC3)cc2C1 [Example 511]	≤ 250 nM
CC(c1cc2n(n1)CCCN(C(=O)OCc1cc(C(F)(F)F)cc(C(F)(F)F)c1)C2)N1CCC(F)CC1 (stereo not drawn) [Example 512]	≤ 100 nM
O=C(OCc1cc(C(F)(F)F)cc(C(F)(F)F)c1)N1CCCn2nc(CNC3CC3)cc2C1 [Example 513]	≤ 250 nM
CN1CCN(C(=O)c2nn3c(c2F)CN(C(=O)OCc2cc(Cl)cc(C(F)(F)F)c2)CCC3)CC1 [Example 515]	≤ 100 nM
O=C(OCc1cc(C(F)(F)F)cc(C(F)(F)F)c1)N1CCn2nc(C3=CCNCC3)cc2C1 [Example 516]	≤ 100 nM
